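These data come from cells grown in 96-well plates and exposed to compound for 48 hours at five concentrations. At the TGI there is no net growth.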
Key:
Assay in all cases: inhibition of tumour cell growth, NCI panel, 48 h
ACHN renal = test system: ACHN renal
HL-60(TB) leukemia = test system: HL-60(TB) leukemia
HOP-62 NSCLC = test system: HOP-62 NSCLC
COLO 205 colon = test system: COLO 205 colon
M14 melanoma = test system: M14 melanoma
EKVX NSCLC = test system: EKVX NSCLC
MOLT-4 leukemia = test system: MOLT-4 leukemia
MDA-N = test system: MDA-N
786-0 renal = test system: 786-0 renal
SN12C renal = test system: SN12C renal
SK-MEL-28 melanoma = test system: SK-MEL-28 melanoma
OVCAR-4 ovarian = test system: OVCAR-4 ovarian
T-47D breast = test system: T-47D breast
SF-295 CNS = test system: SF-295 CNS
BT-549 breast = test system: BT-549 breast
NCI-H226 lung = test system: NCI-H226 lung
LOX IMVI melanoma = test system: LOX IMVI melanoma
MALME-3M melanoma = test system: MALME-3M melanoma
OVCAR-8 ovarian = test system: OVCAR-8 ovarian
SNB-19 CNS = test system: SNB-19 CNS
HCT-15 colon = test system: HCT-15 colon
SF-539 CNS = test system: SF-539 CNS
K-562 leukemia = test system: K-562 leukemia
NCI/ADR-RES ovarian = test system: NCI/ADR-RES ovarian
NCI-H522 lung = test system: NCI-H522 lung
RXF 393 renal = test system: RXF 393 renal
SF-268 CNS = test system: SF-268 CNS
DU-145 prostate = test system: DU-145 prostate
HCT-116 colon = test system: HCT-116 colon
UACC-257 melanoma = test system: UACC-257 melanoma
HT29 colon = test system: HT29 colon
SK-MEL-5 melanoma = test system: SK-MEL-5 melanoma
CCRF-CEM leukemia = test system: CCRF-CEM leukemia
MDA-MB-435 = test system: MDA-MB-435
HS 578T breast = test system: HS 578T breast
SK-OV-3 ovarian = test system: SK-OV-3 ovarian
U251 CNS = test system: U251 CNS
NCI-H460 lung = test system: NCI-H460 lung
RPMI-8226 leukemia = test system: RPMI-8226 leukemia
IGROV1 ovarian = test system: IGROV1 ovarian
SW-620 colon = test system: SW-620 colon
KM12 colon = test system: KM12 colon
OVCAR-3 ovarian = test system: OVCAR-3 ovarian
SK-MEL-2 melanoma = test system: SK-MEL-2 melanoma
MCF7 breast = test system: MCF7 breast
TK-10 renal = test system: TK-10 renal
NCI-H23 lung = test system: NCI-H23 lung
UACC-62 melanoma = test system: UACC-62 melanoma
PC-3 prostate = test system: PC-3 prostate
OVCAR-5 ovarian = test system: OVCAR-5 ovarian
CAKI-1 renal = test system: CAKI-1 renal
A549 NSCLC = test system: A549 NSCLC
A498 renal = test system: A498 renal
HCC-2998 colon = test system: HCC-2998 colon
MDA-MB-231 breast = test system: MDA-MB-231 breast

Measured: TGI

O=C1C=CC(=O)c2c1ccc1c3ccccc3n(CCCCCCCCn3c4ccccc4c4ccc5c(c43)C(=O)C=CC5=O)c21
> 100 µM: all assays above
